Assay results published in patent publication US20050272822A1 (priority 2001, published 2005).
Structures can show the parent of a compound that is named as a salt.

How the values were obtained:
[1] = system: monoamine oxidase; conditions: cited from earlier work
[2] = system: muscaranic receptors; conditions: in vitro; cited from earlier work
[3] = system: histaminergic receptors; conditions: in vitro; cited from earlier work
[4] = system: adrenergic receptors; conditions: in vitro; cited from earlier work
[5] = Stability in moist environments and in processes involving water; format: physicochemical
[6] = Water vapor sorption/desorption (dynamic vapor sorption); conditions: two water sorption/desorption cycles, 25° C.
Protocol: The sample weight changes were monitored as function of the time and relative humidity. Two identical relative humidity-time experiment cycles (0 to 90% relative humidity) were performed to detect any changes in solid-state properties.

| SMILES | inhibitory activity on monoamine oxidase [1] | affinity for muscaranic receptors [2] | affinity for histaminergic receptors [3] | affinity for adrenergic receptors [4] | stability in moist environments ([5]; atmospheres having at least 20% relative humidity) | stability in processes involving water compared with known forms ([5]; processes involving water, such as wet granulation) | solid-state transition during dehydration/hydration cycling [6] |
| --- | --- | --- | --- | --- | --- | --- | --- |
| COc1ccc(C(CN(C)C)C2(O)CCCCC2)cc1 (stereo not shown) [venlafaxine, 1-[2-(dimethylamino)-1-(4-methoxyphenyl)ethyl]cyclohexanol] | no inhibitory activity | virtually no affinity | virtually no affinity | virtually no affinity | – | – | – |
| COc1ccc(C(CN(C)C)C2(O)CCCCC2)cc1 (stereo not shown) [venlafaxine hydrochloride monohydrate] | – | – | – | – | stable | more stable than known forms | reversible |
